According to the OligoGym collection:
Values joined by “and” are separate entries in the source; they are usually repeats but may differ in a detail not shown here. Identical values can stand only once. HELM strings list units from the 5' end as sugar, base in round brackets, then linkage (d deoxyribose, r ribose, m 2'-O-methyl, p phosphodiester). Methylation of C is not given here. [moe] = 2'-O-(2-methoxyethyl) (MOE); [cEt] = constrained ethyl (cEt); [sp] = phosphorothioate linkage

Target: HBV
Settings: ASO

“RNA1{[moe](T)[sp].[cEt](A)[sp].[cEt](G)[sp].d(G)[sp].d(C)[sp].d(A)[sp].d(G)[sp].d(A)[sp].d(G)[sp].d(G)[sp].d(T)[sp].d(G)[sp].d(A)[sp].[cEt](A)[sp].[cEt](A)[sp].[moe](A)}$$$$V2.0” was tested, and the target mRNA inhibition (HepG2, 0.07 µM) was 31% and 28%.

With “RNA1{[moe](T)[sp].[cEt](C)[sp].[cEt](A)[sp].d(G)[sp].d(C)[sp].d(A)[sp].d(A)[sp].d(A)[sp].d(C)[sp].d(A)[sp].d(C)[sp].d(T)[sp].d(T)[sp].[cEt](G)[sp].[cEt](G)[sp].[moe](C)}$$$$V2.0” the target mRNA inhibition (HepG2, 0.07 µM) was 67% and 71%.

With “RNA1{[moe](T)[sp].[cEt](C)[sp].d(C)[sp].d(G)[sp].d(C)[sp].d(A)[sp].d(G)[sp].d(T)[sp].d(A)[sp].d(T)[sp].d(G)[sp].d(G)[sp].[cEt](A)[sp].[moe](T)[sp].[cEt](C)[sp].[moe](G)}$$$$V2.0” the target mRNA inhibition (HepG2, 0.0092593 µM) was 33%, the target mRNA inhibition (HepG2, 0.0277778 µM) was 56% and the target mRNA inhibition (HepG2, 0.07 µM) was 85% and 81%. For the same substance, the target mRNA inhibition (HepG2, 0.0833333 µM) was 80% and the target mRNA inhibition (HepG2, 0.25 µM) was 92%.

For “RNA1{[moe](T)[sp].[cEt](G)[sp].[cEt](A)[sp].d(G)[sp].d(G)[sp].d(C)[sp].d(A)[sp].d(T)[sp].d(A)[sp].d(G)[sp].d(C)[sp].d(A)[sp].d(G)[sp].[cEt](C)[sp].[cEt](A)[sp].[moe](G)}$$$$V2.0”, the target mRNA inhibition (HepG2, 0.07 µM) was 68% and 61%.

In the case of “RNA1{[moe](T)[sp].[moe](C)[sp].[moe](C)[sp].[moe](G)[sp].[moe](C)[sp].d(A)[sp].d(G)[sp].d(T)[sp].d(A)[sp].d(T)[sp].d(G)[sp].d(G)[sp].d(A)[sp].d(T)[sp].[moe](C)[sp].[moe](G)[sp].[moe](G)}$$$$V2.0”, the target mRNA inhibition (HepG2, 0.07 µM) is reported as 77% and 68%.

“RNA1{[moe](T)[sp].[moe](C)[sp].[moe](C)[sp].[moe](G)[sp].d(C)[sp].d(A)[sp].d(G)[sp].d(T)[sp].d(A)[sp].d(T)[sp].d(G)[sp].d(G)[sp].d(A)[sp].[moe](T)[sp].[moe](C)[sp].[moe](G)}$$$$V2.0” was tested, and the target mRNA inhibition (HepG2, 0.07 µM) was 71% and 73%.

“RNA1{[moe](T)[sp].[moe](C)[sp].[moe](C)[sp].d(A)[sp].d(C)[sp].d(C)[sp].d(A)[sp].d(C)[sp].d(G)[sp].d(A)[sp].d(G)[sp].d(T)[sp].d(C)[sp].[cEt](T)[sp].[cEt](A)[sp].[cEt](G)}$$$$V2.0” was tested, and the target mRNA inhibition (HepG2, 0.07 µM) was 42% and 67%.

“RNA1{[moe](T)[sp].[moe](C)[sp].[moe](C)[sp].d(G)[sp].d(C)[sp].d(A)[sp].d(G)[sp].d(T)[sp].d(A)[sp].d(T)[sp].d(G)[sp].d(G)[sp].[moe](A)[sp].[moe](T)[sp].[moe](C)[sp].[moe](G)[sp].[moe](G)}$$$$V2.0” was tested, and the target mRNA inhibition (HepG2, 0.07 µM) was 68% and 58%.

For “RNA1{[moe](T)[sp].[moe](C)[sp].[moe](C)[sp].d(G)[sp].d(C)[sp].d(A)[sp].d(G)[sp].d(T)[sp].d(A)[sp].d(T)[sp].d(G)[sp].d(G)[sp].d(A)[sp].[cEt](T)[sp].[cEt](C)[sp].[cEt](G)}$$$$V2.0”, the target mRNA inhibition (HepG2, 0.07 µM) was 73% and 53%.

In the case of “RNA1{[moe](T)[sp].[moe](G)[sp].[moe](A)[sp].[cEt](G)[sp].[cEt](G)[sp].d(C)[sp].d(A)[sp].d(T)[sp].d(A)[sp].d(G)[sp].d(C)[sp].d(A)[sp].[cEt](G)[sp].[cEt](C)[sp].[moe](A)[sp].[moe](G)[sp].[moe](G)}$$$$V2.0”, the target mRNA inhibition (HepG2, 0.009375 µM) is reported as 23%, the target mRNA inhibition (HepG2, 0.01875 µM) is reported as 4% and the target mRNA inhibition (HepG2, 0.0375 µM) is reported as 29%. For the same substance, the target mRNA inhibition (HepG2, 0.075 µM) was 31%, the target mRNA inhibition (HepG2, 0.15 µM) was 36% and the target mRNA inhibition (HepG2, 0.3 µM) was 56%.

Work on “RNA1{[moe](T)[sp].[moe](G)[sp].[moe](A)[sp].[cEt](G)[sp].d(G)[sp].d(C)[sp].d(A)[sp].d(T)[sp].d(A)[sp].d(G)[sp].d(C)[sp].d(A)[sp].d(G)[sp].[cEt](C)[sp].[moe](A)[sp].[moe](G)[sp].[moe](G)}$$$$V2.0” yielded a target mRNA inhibition (HepG2, 0.009375 µM) of 6%, a target mRNA inhibition (HepG2, 0.01875 µM) of 31% and a target mRNA inhibition (HepG2, 0.0375 µM) of 42%. It also gave a target mRNA inhibition (HepG2, 0.075 µM) of 58%, a target mRNA inhibition (HepG2, 0.15 µM) of 66% and a target mRNA inhibition (HepG2, 0.3 µM) of 82%.

In the case of “RNA1{[moe](T)[sp].[moe](G)[sp].[moe](A)[sp].[moe](A)[sp].[moe](G)[sp].[moe](C)[sp].d(G)[sp].d(A)[sp].d(A)[sp].d(G)[sp].d(T)[sp].d(G)[sp].d(C)[sp].d(A)[sp].d(C)[sp].[moe](A)[sp].[moe](C)}$$$$V2.0”, the target mRNA inhibition (HepG2, 0.07 µM) is reported as 84% and 64%.

With “RNA1{[moe](T)[sp].[moe](G)[sp].[moe](A)[sp].d(A)[sp].d(G)[sp].d(C)[sp].d(G)[sp].d(A)[sp].d(A)[sp].d(G)[sp].d(T)[sp].d(G)[sp].d(C)[sp].[cEt](A)[sp].[cEt](C)[sp].[cEt](A)}$$$$V2.0” the target mRNA inhibition (HepG2, 0.07 µM) was 67% and 70%.

With “RNA1{[moe](T)[sp].[moe](G)[sp].[moe](A)[sp].d(G)[sp].d(G)[sp].d(C)[sp].d(A)[sp].d(T)[sp].d(A)[sp].d(G)[sp].d(C)[sp].d(A)[sp].[moe](G)[sp].[moe](C)[sp].[moe](A)[sp].[moe](G)[sp].[moe](G)}$$$$V2.0” the target mRNA inhibition (HepG2, 0.07 µM) was 70% and 56%.
